# Laboratory results published in PMC3299860 (Antiviral Research, 2012).
# “Also recorded” adds a separate entry of the source.
# Experiments:
# A/Fukui/20/2004 (H3N2) = format: biochemical, human influenza virus
# [1] = tested on: A/New Jersey/15/2007 (H1N1); format: biochemical, human influenza virus
smiles,measurement,setting,value
"CC(=O)N[C@H]1[C@H]([C@H](O)[C@H](O)CO)OC(C(=O)O)=C[C@@H]1N=C(N)N [zanamivir, 4-guanidino-Neu5Ac2en]",susceptibility to NAI (in words),A/Fukui/20/2004 (H3N2),susceptible
same,susceptibility to NAI (in words),[1],zanamivir-sensitive; also recorded: susceptible
